Tested on: Wnt pathway
Test: Wnt activity reporter assay (SP5 promoter-luciferase in SW480 cells)
Type: cell-based
Conditions: Homo sapiens, SP5 promoter firefly luciferase reporter, read-out: Wnt inhibition
Text: The above synthesized compounds were screened using the assay procedure for Wnt activity described below.
Reporter cell lines can be generated by stably transducing cells of cancer cell lines (e.g., colon cancer) with a lentiviral construct that include a wnt-responsive promoter driving expression of the firefly luciferase gene.
Lentiviral constructs can be made in which the SP5 promoter, a promoter having eight TCF/LEF binding sites derived from the SP5 promoter, is linked upstream of the firefly luciferase gene. The lentiviral constructs can also include a hygromycin resistance gene as a selectable marker. The SP5 promoter construct can be used to transduce SW480 cells, a colon cancer cell line having a mutated APC gene that generates a truncated APC protein, leading to de-regulated accumulation of β-catenin.
Cultured SW480 cells bearing a reporter construct can be distributed at approximately 10,000 cells per well into 96 well or 384 well plates. Compounds from a small molecule compound library can then be added to the wells in half-log dilutions using a ten micromolar top concentration. A series of control wells for each cell type receive only buffer and compound solvent. Twenty-four to forty hours after the addition of compound, reporter activity for luciferase can be assayed, for example, by addition of the BrightGlo luminescence reagent (Promega) and the Victor3 plate reader (Perkin Elmer). Readings can be normalized to DMSO only treated cells, and normalized activities can then be used in the IC50 calculations.

SMILES | IC50 [nM]
CC(C)N(Cc1cc(F)cc(-c2cncc3[nH]c(-c4n[nH]c5ncc(-c6cccnc6)cc45)nc23)c1)C(C)C [Compound 17, N-(3-Fluoro-5-(2-(5-(pyridin-3-yl)-1H-pyrazolo[3,4-b]pyridin-3-yl)-3H-imidazo[4,5-c]pyridin-7-yl)benzyl)-N-isopropylpropan-2-amine] | 550
CN(C)CCNc1cncc(-c2cnc3[nH]nc(-c4nc5c(-c6cccc(F)c6)cncc5[nH]4)c3c2)c1 [Compound 6, N1-(5-(3-(7-(3-Fluorophenyl)-3H-imidazo[4,5-c]pyridin-2-yl)-1H-pyrazolo[3,4-b]pyridin-5-yl)pyridin-3-yl)-N2,N2-dimethylethane-1,2-diamine] | 550
Nc1cncc(-c2cnc3[nH]nc(-c4nc5c(-c6ccncc6)cccc5[nH]4)c3c2)c1 [Compound 635, 5-(3-(4-(Pyridin-4-yl)-1H-benzo[d]imidazol-2-yl)-1H-pyrazolo[3,4-b]pyridin-5-yl)pyridin-3-amine] | 34
c1ccc(CNCc2cncc(-c3cnc4[nH]nc(-c5nc6ccncc6[nH]5)c4c3)c2)cc1 [Compound 336, 1-(5-(3-(3H-Imidazo[4,5-c]pyridin-2-yl)-1H-pyrazolo[3,4-b]pyridin-5-yl)pyridin-3-yl)-N-benzylmethanamine] | 790
CN(C)Cc1cncc(-c2cnc3[nH]nc(-c4nc5c(-c6cncc(F)c6)cncc5[nH]4)c3c2)c1 [Compound 20, 1-(5-(3-(7-(5-Fluoropyridin-3-yl)-3H-imidazo[4,5-c]pyridin-2-yl)-1H-pyrazolo[3,4-b]pyridin-5-yl)pyridin-3-yl)-N,N-dimethylmethanamine] | 10000
CCCCC(=O)Nc1cncc(-c2cnc3[nH]nc(-c4nc5c(N6CCCCC6)cccc5[nH]4)c3c2)c1 [Compound 698, N-(5-(3-(4-(Piperidin-1-yl)-1H-benzo[d]imidazol-2-yl)-1H-pyrazolo[3,4-b]pyridin-5-yl)pyridin-3-yl)pentanamide] | 300
O=C(Nc1cncc(-c2cnc3[nH]nc(-c4nc5c(-c6ccccc6F)cccc5[nH]4)c3c2)c1)C1CCC1 [Compound 605, N-(5-(3-(4-(2-Fluorophenyl)-1H-benzo[d]imidazol-2-yl)-1H-pyrazolo[3,4-b]pyridin-5-yl)pyridin-3-yl)cyclobutanecarboxamide] | 18
CN(C)c1cncc(-c2cnc3[nH]nc(-c4nc5ccccc5[nH]4)c3c2)c1 [Compound 765, 5-(3-(1H-Benzo[d]imidazol-2-yl)-1H-pyrazolo[3,4-b]pyridin-5-yl)-N,N-dimethylpyridin-3-amine] | 27
CC(C)N1CCN(c2cc(F)cc(-c3cncc4[nH]c(-c5n[nH]c6ncc(-c7cccnc7)cc56)nc34)c2)CC1 [Compound 15, 3-(7-(3-Fluoro-5-(4-isopropylpiperazin-1-yl)phenyl)-3H-imidazo[4,5-c]pyridin-2-yl)-5-(pyridin-3-yl)-1H-pyrazolo[3,4-b]pyridine] | 326
CC(C)(C)CC(=O)Nc1cncc(-c2cnc3[nH]nc(-c4nc5c(-c6ccncc6)cccc5[nH]4)c3c2)c1 [Compound 647, 3,3-Dimethyl-N-(5-(3-(4-(pyridin-4-yl)-1H-benzo[d]imidazol-2-yl)-1H-pyrazolo[3,4-b]pyridin-5-yl)pyridin-3-yl)butanamide] | 1520
Fc1ccccc1-c1cccc2[nH]c(-c3n[nH]c4ncc(-c5cccnc5)cc34)nc12 [Compound 590, 3-(4-(2-Fluorophenyl)-1H-benzo[d]imidazol-2-yl)-5-(pyridin-3-yl)-1H-pyrazolo[3,4-b]pyridine] | 20
O=C(Nc1cncc(-c2cnc3[nH]nc(-c4nc5c(-c6cccc(F)c6)cncc5[nH]4)c3c2)c1)C1CC1 [Compound 114, N-(5-(3-(7-(3-Fluorophenyl)-3H-imidazo[4,5-c]pyridin-2-yl)-1H-pyrazolo[3,4-b]pyridin-5-yl)pyridin-3-yl)cyclopropanecarboxamide] | 11
O=C(Cc1ccccc1)Nc1cncc(-c2cnc3[nH]nc(-c4nc5c(-c6ccc(F)cc6)cncc5[nH]4)c3c2)c1 [Compound 128, N-(5-(3-(7-(4-Fluorophenyl)-3H-imidazo[4,5-c]pyridin-2-yl)-1H-pyrazolo[3,4-b]pyridin-5-yl)pyridin-3-yl)-2-phenylacetamide] | 90
O=C(Nc1cncc(-c2cnc3[nH]nc(-c4nc5c(-c6cccc(F)c6)cccc5[nH]4)c3c2)c1)C1CCCCC1 [Compound 561, N-(5-(3-(4-(3-Fluorophenyl)-1H-benzo[d]imidazol-2-yl)-1H-pyrazolo[3,4-b]pyridin-5-yl)pyridin-3-yl)cyclohexanecarboxamide] | 143
c1ncc(-c2cnc3[nH]nc(-c4nc5c(N6CCCCC6)cncc5[nH]4)c3c2)cc1CN1CCCC1 [Compound 249, 3-(7-(Piperidin-1-yl)-3H-imidazo[4,5-c]pyridin-2-yl)-5-(5-(pyrrolidin-1-ylmethyl)pyridin-3-yl)-1H-pyrazolo[3,4-b]pyridine] | 10000
O=C(Nc1cncc(-c2cnc3[nH]nc(-c4nc5c(-c6ccoc6)cncc5[nH]4)c3c2)c1)c1ccccc1 [Compound 376, N-(5-(3-(7-(Furan-3-yl)-3H-imidazo[4,5-c]pyridin-2-yl)-1H-pyrazolo[3,4-b]pyridin-5-yl)pyridin-3-yl)benzamide] | 51
O=C(Nc1cncc(-c2cnc3[nH]nc(-c4nc5c(N6CCCCC6)cncc5[nH]4)c3c2)c1)C1CC1 [Compound 254, N-(5-(3-(7-(Piperidin-1-yl)-3H-imidazo[4,5-c]pyridin-2-yl)-1H-pyrazolo[3,4-b]pyridin-5-yl)pyridin-3-yl)cyclopropanecarboxamide] | 235
CCCCC(=O)Nc1cncc(-c2cnc3[nH]nc(-c4nc5c(N6CCN(C)CC6)cncc5[nH]4)c3c2)c1 [Compound 305, N-(5-(3-(7-(4-Methylpiperazin-1-yl)-3H-imidazo[4,5-c]pyridin-2-yl)-1H-pyrazolo[3,4-b]pyridin-5-yl)pyridin-3-yl)pentanamide] | 7350
CC(C)(C)CC(=O)Nc1cncc(-c2cnc3[nH]nc(-c4nc5c(-c6cccnc6)cncc5[nH]4)c3c2)c1 [Compound 179, 3,3-Dimethyl-N-(5-(3-(7-(pyridin-3-yl)-3H-imidazo[4,5-c]pyridin-2-yl)-1H-pyrazolo[3,4-b]pyridin-5-yl)pyridin-3-yl)butanamide] | 1450
c1cc(-c2ccsc2)c2nc(-c3n[nH]c4ncc(-c5cncc(CN6CCCCC6)c5)cc34)[nH]c2c1 [Compound 799, 5-(5-(Piperidin-1-ylmethyl)pyridin-3-yl)-3-(4-(thiophen-3-yl)-1H-benzo[d]imidazol-2-yl)-1H-pyrazolo[3,4-b]pyridine] | 82
Fc1cccc(-c2cccc3[nH]c(-c4n[nH]c5ncc(-c6cncc(CN7CCCCC7)c6)cc45)nc23)c1 [Compound 554, 3-(4-(3-Fluorophenyl)-1H-benzo[d]imidazol-2-yl)-5-(5-(piperidin-1-ylmethyl)pyridin-3-yl)-1H-pyrazolo[3,4-b]pyridine] | 200
c1cc(-c2cncc3[nH]c(-c4n[nH]c5ncc(-c6cncc(CN7CCCCC7)c6)cc45)nc23)cs1 [Compound 354, 5-(5-(Piperidin-1-ylmethyl)pyridin-3-yl)-3-(7-(thiophen-3-yl)-3H-imidazo[4,5-c]pyridin-2-yl)-1H-pyrazolo[3,4-b]pyridine] | 293
O=C(Nc1cncc(-c2cnc3[nH]nc(-c4nc5c(N6CCCCC6)cncc5[nH]4)c3c2)c1)c1ccccc1 [Compound 246, N-(5-(3-(7-(Piperidin-1-yl)-3H-imidazo[4,5-c]pyridin-2-yl)-1H-pyrazolo[3,4-b]pyridin-5-yl)pyridin-3-yl)benzamide] | 1270
CC(C)Nc1cncc(-c2cnc3[nH]nc(-c4nc5c(-c6ccncc6)cccc5[nH]4)c3c2)c1 [Compound 643, N-Isopropyl-5-(3-(4-(pyridin-4-yl)-1H-benzo[d]imidazol-2-yl)-1H-pyrazolo[3,4-b]pyridin-5-yl)pyridin-3-amine] | 30
c1ccc(CNCc2cncc(-c3cnc4[nH]nc(-c5nc6ccccc6[nH]5)c4c3)c2)cc1 [Compound 781, 1-(5-(3-(1H-Benzo[d]imidazol-2-yl)-1H-pyrazolo[3,4-b]pyridin-5-yl)pyridin-3-yl)-N-benzylmethanamine] | 1440
Cc1cn(-c2cccc3[nH]c(-c4n[nH]c5ncc(-c6cncc(NC(=O)C7CCCCC7)c6)cc45)nc23)cn1 [Compound 728, N-(5-(3-(4-(4-Methyl-1H-imidazol-1-yl)-1H-benzo[d]imidazol-2-yl)-1H-pyrazolo[3,4-b]pyridin-5-yl)pyridin-3-yl)cyclohexanecarboxamide] | 39
CN(C)Cc1cncc(-c2cnc3[nH]nc(-c4nc5c(-c6cc(F)cc(CNS(C)(=O)=O)c6)cncc5[nH]4)c3c2)c1 [Compound 22, N-(3-(2-(5-(5-((Dimethylamino)methyl)pyridin-3-yl)-1H-pyrazolo[3,4-b]pyridin-3-yl)-3H-imidazo[4,5-c]pyridin-7-yl)-5-fluorobenzyl)methanesulfonamide] | 32
O=C(Nc1cncc(-c2cnc3[nH]nc(-c4nc5c(-c6cccc(F)c6)cncc5[nH]4)c3c2)c1)C(F)(F)F [Compound 1, 2,2,2-Trifluoro-N-(5-(3-(7-(3-fluorophenyl)-3H-imidazo[4,5-c]pyridin-2-yl)-1H-pyrazolo[3,4-b]pyridin-5-yl)pyridin-3-yl)acetamide] | 6

Reference: patent US10071086B2, “1H-pyrazolo[3,4-b]pyridines and therapeutic uses thereof” (Samumed, LLC, priority 2012, dated 2018)
